Paper PMC9181987, “Disclosing the Potential of Fluorinated Ionic Liquids as Interferon-Alpha 2b Delivery Systems” (Nanomaterials, 2022)

Columns and labels:
[1] = parameters: method as in doi:10.5772/INTECHOPEN.96336, doi:10.1016/j.molliq.2022.119285, PMID 25580898; conditions: cited from earlier work
[2] = Tensiometry (Du Noüy ring): surface tension breakpoints, surface properties, critical packing parameters; assay type: physicochemical; conditions: 25°C
Protocol: (§1) The force tensiometer is equipped with a platinum Du Noüy ring to surface tension measurement and a thermostatic vessel connected to a bath circulator (RW-0535G, Lab. Companion, Daejeon, Republic of Korea) in order to keep the temperature of the solution constant. Next, 15 mL of each sample was placed in a glass container and left to equilibrate in the thermostatic vessel. After temperature equilibration, the surface tension was measured. The equipment is a standalone-controlled instrument, and the calibration was conducted with a calibration weight with a known mass before measuring the samples. Each sample was measured five times, and the reported surface tension was the average value with an uncertainty of ±0.22 mN/m. Each solution was then assessed by a KSV’s contact angle goniometer CAM100 (Biolin Scientific, Gothenburg, Sweden). A drop of each solution was placed on a Teflon surface with a Hamilton syringe. This equipment is a PC-controlled instrument, and the tilt was set to 0 degrees at the base of the drop and was recorded for 10 frames with an interval of 1 s. The contact angle was calculated for the left and right sides of the drop and the mean value was the resulting contact angle. At least five different drops of each solution were recorded, and the reported contact angle was the resulting average with an uncertainty of ±5%.
After the evaluation of the CACs, other properties can be taken from the surface tension data. […] The n parameter is deduced from the degree of ionization of aggregates, α, as n = 2 − α, determined from the conductivity profile of the FIL and assumed to be the same for the surface layer in ionic surfactants.
From the Γmax and Avogadro’s number (NA) the minimum area occupied per surfactant molecule at the air/water interface, Amim, can be obtained as set by:(4) Amin=10^18/NAΓmax
In addition, the parameter that explains the efficacy of a surfactant to reduce the surface tension, ΠCAC, was determined, expressing the maximum surface tension diminution resulting from the dissolution of surfactant molecules. This parameter is determined by the surface tension of the solvent ( γ0 ) and the γCAC , as follows:(5) ΠCAC=γ0−γCAC
Them, from ΠCAC, the standard free energy of adsorption, ΔGad0 , was calculated using the following equation [55]:(6) ΔGad0=ΔGagg0−ΠCAC/Γmax
Finally, aiming to disclose information on the self-aggregation process and the shape of the aggregates, the critical packing parameter, P, was also calculated in this work, as follows:(7) P=V0/Aminlc where V0 and lc are the volume occupied by the hydrophobic chains in the aggregate core and the critical chain length, respectively. The structure of the aggregates is defined as spherical when P ≤ 0.33, cylindrical for P ≤ 0.5, lamellar when P ≤ 1, and inverted for P > 1 [38].

[3] = cited from earlier work
[4] = parameters: method as in earlier work; conditions: Water, 25°C, ref [1]; cited from earlier work
[5] = Contact angle goniometry breakpoints; assay type: physicochemical; conditions: 25°C
Protocol: as §1

IFN-α 2b = biological target: T1, IFN-α 2b (Homo sapiens, UniProt P01563); assay: Intrinsic fluorescence spectroscopy of IFN-α 2b with FILs (λmax shift, Stern–Volmer quenching); assay type: binding
T1 construct: purchased Sigma-Aldrich SRP4595; host or cells: E. coli
Protocol: The concentrations were chosen to cover the range where the different aggregates of the FILs are formed. Samples, equilibrated for 30 min at room temperature, and 400 μL of each solution were transferred to a quartz cuvette of 10 mm pathlength and excited at 280 nm, collecting the fluorescence intensity in a wavelength range of 300 to 450 nm. The width of the excitation and emission slit was set to 5 nm for both cases. The spectra of FIL solutions (blanks) were discounted to the spectra of FIL + protein samples to avoid any possible effect of FIL concentration increment in the fluorescence intensity.
A very well-known equation, the Stern–Volmer, was used to characterize the quenching occurring in this region. This equation characterizes the collisional quenching that can occur when the excited state of the fluorophore is disabled due to contact with another molecule (quencher), without chemical alteration. Therefore, the collisional quenching is described by:(11) F0/F=1+K[Q]=1+kqτ0[Q] where F0 and F are the fluorescence intensities of the fluorophore in the absence and presence of the quencher, respectively, K is the Stern–Volmer quenching constant, kq is the biomolecular quenching constant, τ0 is the unquenched lifetime, and [Q] is the quencher concentration. […] This value gives information on the sensitivity of the fluorophore to a quencher.

[6] = 5 μg/mL IFN-α 2b + 5 mM NaH2PO4 (pH=7.4), 1st breakpoint
[7] = 5 μg/mL IFN-α 2b + 5 mM NaH2PO4 (pH=7.4), 2nd breakpoint
[8] = 5 μg/mL IFN-α 2b + 5 mM NaH2PO4 (pH=7.4), 3rd breakpoint
[9] = 5 μg/mL IFN-α 2b + 5 mM NaH2PO4 (pH=7.4), 4th breakpoint

T1 sequence (P01563 24-188): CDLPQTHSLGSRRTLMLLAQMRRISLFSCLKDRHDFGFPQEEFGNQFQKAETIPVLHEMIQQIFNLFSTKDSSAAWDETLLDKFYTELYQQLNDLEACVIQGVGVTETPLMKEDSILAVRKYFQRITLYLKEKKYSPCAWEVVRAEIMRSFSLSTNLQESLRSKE

CCn1cc[n+](C)c1.O=S(=O)([O-])C(F)(F)C(F)(F)C(F)(F)C(F)(F)F [[C2C1Im][C4F9SO3], 1-Ethyl-3-methylimidazolium perfluorobutanesulfonate]
miscibility in water [1]: full miscibility in water
CAC (wFIL), tensiometer [2, 6]: 0.0008
CAC, tensiometer [2, 6]: 1.963 mmol⸱kg-1
surface tension at CAC, γCAC [2, 6]: 51.4 mN m-1
CAC (wFIL), tensiometer [2, 7]: 0.0025
CAC, tensiometer [2, 7]: 6.105 mmol⸱kg-1
surface tension at CAC, γCAC [2, 7]: 48.2 mN m-1
CAC (wFIL), tensiometer [2, 8]: 0.0089
CAC, tensiometer [2, 8]: 21.61 mmol⸱kg-1
surface tension at CAC, γCAC [2, 8]: 38.3 mN m-1
10^6 Γmax, maximum surface excess concentration [2, 9]: 4.41 mol m-2
Amin, minimum area per surfactant molecule at the air/water interface [2, 9]: 0.38 nm2
CAC (wFIL), tensiometer [2, 9]: 0.0335
CAC, tensiometer [2, 9]: 81.59 mmol⸱kg-1
critical packing parameter Peq 8 [2, 9]: 0.7439
critical packing parameter Peq 9 [2, 9]: 0.7481
surface tension at CAC, γCAC [2, 9]: 24.3 mN m-1
ΔG0ad, standard free energy of adsorption [2, 9]: -7.734 kcal/mol
ΠCAC, efficacy to reduce the surface tension [2, 9]: 37.8 mN m-1
10^6 Γmax, maximum surface excess concentration ([2]; 5 mM NaH2PO4 (pH=7.4)): 3.26 mol m-2
Amin, minimum area per surfactant molecule at the air/water interface ([2]; 5 mM NaH2PO4 (pH=7.4)): 0.51 nm2
CAC (wFIL), tensiometer ([2]; 5 mM NaH2PO4 (pH=7.4)): 0.0330
CAC, tensiometer ([2]; 5 mM NaH2PO4 (pH=7.4)): 80.35 mmol⸱kg-1
critical packing parameter Peq 8 ([2]; 5 mM NaH2PO4 (pH=7.4)): 0.550
critical packing parameter Peq 9 ([2]; 5 mM NaH2PO4 (pH=7.4)): 0.553
surface tension at CAC, γCAC ([2]; 5 mM NaH2PO4 (pH=7.4)): 24.6 mN m-1
ΔG0ad, standard free energy of adsorption ([2]; 5 mM NaH2PO4 (pH=7.4)): -9.8 kcal/mol
ΠCAC, efficacy to reduce the surface tension ([2]; 5 mM NaH2PO4 (pH=7.4)): 46.4 mN m-1
toxicity [3]: negligible toxicity
First CAC [4]: 14.55 mmol/kg
First CAC (wFIL) [4]: 0.0060
Gibbs free energy of aggregation ΔG0agg, First CAC [4]: -5.9 kcal/mol
Gibbs free energy of aggregation ΔG0agg, Second CAC [4]: -4.97 kcal/mol
Gibbs free energy of aggregation ΔG0agg, Third CAC [4]: -6.57 kcal/mol
Second CAC [4]: 38.54 mmol/kg
Second CAC (wFIL) [4]: 0.0158
Third CAC [4]: 81.03 mmol/kg
Third CAC (wFIL) [4]: 0.0332
ionization degree α, First CAC [4]: 0.79
ionization degree α, Second CAC [4]: 0.84
ionization degree α, Third CAC [4]: 0.29
CAC (wFIL), goniometer [5, 6]: 0.0009
CAC, goniometer [5, 6]: 2.101 mmol⸱kg-1
CAC (wFIL), goniometer [5, 7]: 0.0030
CAC, goniometer [5, 7]: 7.288 mmol⸱kg-1
CAC (wFIL), goniometer [5, 8]: 0.0157
CAC, goniometer [5, 8]: 38.18 mmol⸱kg-1
CAC (wFIL), goniometer [5, 9]: 0.0430
CAC, goniometer [5, 9]: 104.7 mmol⸱kg-1
CAC (wFIL), goniometer ([5]; 5 mM NaH2PO4 (pH=7.4)): 0.0329
CAC, goniometer ([5]; 5 mM NaH2PO4 (pH=7.4)): 80.27 mmol⸱kg-1
Stern–Volmer quenching constant K (IFN-α 2b; IFN-α 2b 20 μg/mL, region ~14 mM to ~110 mM FIL, 5 mM NaH2PO4 pH 7.4, excitation 280 nm): 0.0106 mM⁻¹
biomolecular quenching constant kq (IFN-α 2b; from K and τ0 of IFN-α 2b): 3.59e+09 M⁻¹ s⁻¹
